# Legend:
# [1] = Metabolic stability in liver microsomes; type: in vitro ADME; conditions: dog liver microsomes
# [2] = Pharmacokinetics IV/PO in mice; type: in vivo, ICR mice; conditions: for AUC(0-t): read-out: AUC0–24h
# Procedure: (§1) Pharmacokinetics profile of KMS88009 was obtained using ICR mice, SD rats, beagle dogs and cynomolgus monkeys. Animals were fasted overnight before KMS88009 administration. Mice were divided into 2 groups to receive KMS88009 as a single dose of 2.1 mg/kg intravenous (IV) bolus or 10 mg/kg orally (PO) by gavage. Additionally, KMS88009 was administered orally to estimate the BBB penetration in mice (10, 30 and 100 mg/kg). […] Dog received KMS88009 either as an IV bolus (1 mg/kg) via the great saphenous vein or by oral gavage (4 mg/kg). KMS88009 was administrated to monkeys as an IV bolus (1 mg/kg) via the femoral vein or by oral gavage (4 mg/kg). Vehicle for IV and PO administration was DMSO/tween-20/saline (3.3∶19.8∶[…]). […]. Brain samples were weighed and Daunce-homogenized in 10-fold volume of ice-chilled 4% bovine serum albumin (BSA) solution at room temperature. Plasma and brain homogenates were kept frozen at −70°C until analysis. The levels of KMS88009 were determined by the LC-MS/MS analysis. Pharmacokinetic parameters, time to the maximum concentration (Tmax), maximum concentration (Cmax), elimination half-life (T1/2), volume of distribution (Vd), clearance (Cl) and mean residual time (MRT), of KMS88009 were calculated based on plasma concentration-time data by a non-compartmental method using WinNonlin Version 5.2 (Pharsight, USA). Area under the curve from 0 to 24 hr (AUC0-24h) and area under the curve from 0 to infinity (AUCINF) were obtained by linear and log linear trapezoidal summations.
# [3] = Plasma and brain pharmacokinetics (BBB penetration) after PO in mice; type: in vivo; conditions: for AUC(0-t): read-out: AUC0–24h
# Procedure: as §1
# Aβ40 and Aβ42 = experiment: Aβ40/Aβ42 sandwich ELISA of brain tissue, prophylactic trial; type: in vivo, mouse
# Procedure: Mice subjected to behavior tests were sacrificed and levels of Aβ in their brains were analyzed. After removing olfactory lobe and cerebellum of brain, hippocampus and cerebral cortex were separated. The separated regions were Dounce-homogenized first in 10-fold mass of a lysis buffer (RIPA, 150 mM NaCl, 1% NP-40, 0.5% deoxycholic acid, 0.1% SDS and 50 mM tris, pH 8.0) or tris buffer (50 mM tris and pH 8.0) containing protease inhibitor cocktail (Pierce, USA) for prophylactic or therapeutic treatment groups, respectively. […] The supernatant (soluble Aβ fraction) was collected and stored at −70°C until analyzed. The resulting pellet was solubilized in 20-fold mass of cold guanidine solution (5 M guanidine HCl, 50 mM tris HCl and pH 8.0) at room temperature for 4 hr followed by dilution with cold Dulbecco's phosphate buffered saline (PBS) with 5% BSA and 0.03% tween-20. […] The tissue concentrations of Aβ40 and Aβ42 in the soluble and insoluble fraction were measured using Aβ-detecting sandwich enzyme-linked immunosorbent assay (ELISA) kit (BioSource, USA). The levels of soluble Aβ oligomers were measured by a dot-blot immunoassay with an anti-oligomer antibody and an anti-Aβ antibody on soluble fraction of hippocampus homogenates. The homogenate sample (3 µL) was spotted onto nitrocellulose membrane (Whatman, UK). After blocking with 5% BSA in tris-buffered saline (TBS) for 1 hr at room temperature, the membrane was incubated with rabbit anti-oligomer polyclonal antibody (A11; 1∶1,000; Millipore, USA) overnight at 4°C, followed by incubation with HRP-secondary anti-rabbit antibody (1∶5,000; Millipore, USA) for 1 hr at room temperature. Blots were developed using ECL reagents (PerkinElmer, USA). Blots were re-identified after oligomeric antibody was stripped and re-probing with the anti-Aβ antibody 6E10 (1∶1,000; Signet, UK). The density of dots was analyzed with Multi Gauge program (Fuji Film, Japan) and the data was normalized to the average density of the TG control group. […] Membrane was incubated in a 5% solution of non-fat dry milk for 1 hr at room temperature. […]
# Aβ oligomers = experiment: Western blot (6E10) of hippocampus soluble fraction, prophylactic trial; type: in vivo, mouse; conditions: soluble fraction of hippocampal homogenates, TG mice
# APP/PS1 TG mice = experiment: Contextual fear conditioning, therapeutic trial; type: in vivo, mouse; conditions: PO 30 mg/kg/day, 3 months, TG 20.0%
# Procedure: Behavioral tests were performed in the following sequence: Y-maze (day 1), Morris water maze (day 4 to 12) and contextual fear conditioning (day 26 to 27). To reduce stress, contextual fear conditioning was carried out 2 weeks after the Morris water maze task. In the therapeutic trial, APP/PS1 TG mice were treated with KMS88009 (30 mg/kg/day) for 3 months from 9 to 12 months of age. Y-maze tests short-term spatial working memory. Y-maze is a 3-armed (40 L×10 W×12 H cm) horizontal maze in which the arms are symmetrically disposed at 120° angles from each other. Mice were placed at the end of one arm and allowed to move freely through the maze during a 5-min session. Arm entry was considered completed when the hind paws of the mouse were completely placed in the arm. Alternation was defined as successive entries into the 3 arms on overlapping triplet sets. The series of arm entries was recorded via video recorders. […] During each trial session, the time taken to find the hidden platform (latency) was recorded using a video camera-based Ethovision System (Nodulus, Nertherlands). […] Swimming time was recorded during mice were in the pool quadrant where the platform had been previously located. […] Fear conditioning task was measured to test the ability to learn and remember an association between an aversive experience and environmental cues. […] Freezing response was measured without CS or US. […]
# [4] = ICR, plasma, mouse IV 2.1 mg/kg
# [5] = ICR, mouse IV 2.1 mg/kg, plasma
# [6] = ICR, mouse, brain, mice PO 10 mg/kg
# [7] = ICR, mouse, brain, mice PO 30 mg/kg
# [8] = ICR, mouse, brain, mice PO 100 mg/kg
# [9] = ICR, mouse, plasma, mice PO 10 mg/kg
# [10] = ICR, mouse, plasma, mice PO 30 mg/kg
# [11] = ICR, mouse, plasma, mice PO 100 mg/kg
# [12] = cortex, 10-100 mg/kg/day groups
compound,measurement,setting,value
"COc1ccc2cc(C=Cc3ccc(N(C)C)cc3)oc2c1 [KMS88009, 6-methoxy-2-(4-dimethylaminostyryl) benzofuran]",half-life at 5 µM,[1],0.355 ± 0.0133 h
same,"remaining at 1 h, 5 µM",[1]; read-out: Remaining % of parent molecule at 60 min.,14.8 ± 0.2%
same,MRT last,[2]; [4],2.9 h
same,Vd,[2]; [4],32.1 L/kg
same,clearance,[2]; [4],63.3 mL/min/kg
same,half-life,[2]; [4],5.9 h
same,MRT last,"[2]; ICR, plasma, mouse PO 10 mg/kg",5.5 h
same,Tmax,"[2]; ICR, plasma, mouse PO 10 mg/kg",1 h
same,half-life,"[2]; ICR, plasma, mouse PO 10 mg/kg",4.6 h
same,AUC(0-inf),[2]; [5],1330 ng·h/mL
same,AUC(0-t),[2]; [5],1300 ng·h/mL
same,AUC(0-inf),"[2]; ICR, mouse PO 10 mg/kg, plasma",6310 ng·h/mL
same,Cmax,"[2]; ICR, mouse PO 10 mg/kg, plasma",1060 ng/mL
same,AUC(0-t),"[2]; ICR, mouse PO 10 mg/kg, plasma",6160 ng·h/mL
same,BA,[2]; mouse PO 10 mg/kg vs IV […],99.6%
same,Kp,"[3]; ICR, mouse, brain, mice, PO, read-out: Level (AUC0–24h) in the brain relative to plasma",> 12
same,Cmax,[3]; [6],6370 ng/g
same,Tmax,[3]; [6],2 h
same,Cmax,[3]; [7],17800 ng/g
same,Tmax,[3]; [7],4 h
same,Cmax,[3]; [8],23300 ng/g
same,Tmax,[3]; [8],10 h
same,Cmax,[3]; [9],744 ng/mL
same,Tmax,[3]; [9],1 h
same,AUC(0-t),[3]; [9],4570 ng·h/mL
same,Cmax,[3]; [10],1640 ng/mL
same,Tmax,[3]; [10],1 h
same,AUC(0-t),[3]; [10],13400 ng·h/mL
same,Cmax,[3]; [11],2710 ng/mL
same,Tmax,[3]; [11],2 h
same,AUC(0-t),[3]; [11],30500 ng·h/mL
same,AUC0–24h,"[3]; brain, mice PO 10 mg/kg",55395.5 ng·h/g
same,AUC0–24h,"[3]; brain, mice PO 30 mg/kg",205268.3 ng·h/g
same,AUC0–24h,"[3]; brain, mice PO 100 mg/kg",367538.5 ng·h/g
same,reduction of soluble Aβ40 level vs TG group,Aβ40 and Aβ42; [12],44∼60%
same,reduction of soluble Aβ42 level vs vehicle-treated TG mice,Aβ40 and Aβ42; [12],59∼66%
same,reduction of soluble Aβ40 level vs TG group,"Aβ40 and Aβ42; hippocampus, except the 10 mg/kg/day group",34∼36%
same,Aβ oligomer species affected (western blot),Aβ oligomers,prevented the accumulation of low-molecular-weight (3-mer) and high-molecular-weight (55 to 180 kDa) Aβ oligomeric species
same,freezing response (contextual fear conditioning),APP/PS1 TG mice,48.3%
